Data reported in the NIST ThermoML archive (doi:10.1016/j.jct.2005.05.019).
Values joined by “and” are separate entries in the source; they are usually repeats but may differ in a detail not shown here. Equal entries are not always repeated. Numbers after ± are expanded uncertainties.

Settings: Liquid; for mass density: Bellows volumetry; for vapor or sublimation pressure: Closed cell (Static) method

CC(C)C [2-methylpropane]
mass density
Settings	280 K	300 K	320 K	340 K	360 K	380 K	400 K	420 K	440 K
1000 kPa	574.99 ± 0.63 kg/m3	550.5 ± 0.61 kg/m3	523.69 ± 0.58 kg/m3	–	–	–	–	–	–
2000 kPa	576.63 ± 0.63 kg/m3	–	526.51 ± 0.58 kg/m3	496.95 ± 0.55 kg/m3	461.05 ± 0.51 kg/m3	–	–	–	–
3000 kPa	578.23 ± 0.64 kg/m3	554.67 ± 0.61 kg/m3	529.22 ± 0.58 kg/m3	500.67 ± 0.55 kg/m3	467.32 ± 0.51 kg/m3	422.93 ± 0.47 kg/m3 and 422.97 ± 0.47 kg/m3	–	–	–
4000 kPa	–	–	–	–	–	–	374.9 ± 0.41 kg/m3	–	–
5000 kPa	581.15 ± 0.64 kg/m3	558.59 ± 0.61 kg/m3	534.28 ± 0.59 kg/m3	507.71 ± 0.56 kg/m3	477.66 ± 0.53 kg/m3	441.32 ± 0.49 kg/m3 and 441.54 ± 0.49 kg/m3	394.02 ± 0.43 kg/m3	–	–
10000 kPa	587.88 ± 0.65 kg/m3	567.19 ± 0.62 kg/m3	545.21 ± 0.6 kg/m3	521.75 ± 0.57 kg/m3	496.94 ± 0.55 kg/m3	468.99 ± 0.52 kg/m3 and 469.14 ± 0.52 kg/m3	438.72 ± 0.48 kg/m3	404.86 ± 0.45 kg/m3	366.35 ± 0.4 kg/m3
20000 kPa	600.12 ± 0.66 kg/m3	581.58 ± 0.64 kg/m3	562.64 ± 0.62 kg/m3	542.79 ± 0.6 kg/m3	522.77 ± 0.58 kg/m3	501.27 ± 0.55 kg/m3 and 501.58 ± 0.55 kg/m3	479.65 ± 0.53 kg/m3	457.86 ± 0.5 kg/m3	435.91 ± 0.48 kg/m3
30000 kPa	610.42 ± 0.67 kg/m3	593.56 ± 0.65 kg/m3	576.49 ± 0.63 kg/m3	558.72 ± 0.61 kg/m3	541.32 ± 0.6 kg/m3	522.56 ± 0.57 kg/m3 and 522.99 ± 0.58 kg/m3	504.24 ± 0.55 kg/m3	486.44 ± 0.54 kg/m3	469.37 ± 0.52 kg/m3
40000 kPa	619.36 ± 0.68 kg/m3	603.71 ± 0.66 kg/m3	587.85 ± 0.65 kg/m3	571.75 ± 0.63 kg/m3	555.78 ± 0.61 kg/m3	539.38 ± 0.59 kg/m3	522.85 ± 0.58 kg/m3	507.08 ± 0.56 kg/m3	492.27 ± 0.54 kg/m3
50000 kPa	627.41 ± 0.69 kg/m3	612.8 ± 0.67 kg/m3	597.69 ± 0.66 kg/m3	582.77 ± 0.64 kg/m3	568.17 ± 0.62 kg/m3	552.44 ± 0.61 kg/m3 and 552.92 ± 0.61 kg/m3	537.71 ± 0.59 kg/m3	523.34 ± 0.58 kg/m3	510.21 ± 0.56 kg/m3
60000 kPa	634.74 ± 0.7 kg/m3	620.94 ± 0.68 kg/m3	606.61 ± 0.67 kg/m3	592.49 ± 0.65 kg/m3	578.92 ± 0.64 kg/m3	564.45 ± 0.62 kg/m3	550.04 ± 0.61 kg/m3	537.02 ± 0.59 kg/m3	524.88 ± 0.58 kg/m3
70000 kPa	641.52 ± 0.71 kg/m3	628.12 ± 0.69 kg/m3	614.55 ± 0.68 kg/m3	601.18 ± 0.66 kg/m3	588.19 ± 0.65 kg/m3	574.7 ± 0.63 kg/m3	561.13 ± 0.62 kg/m3	548.69 ± 0.6 kg/m3	537.25 ± 0.59 kg/m3
80000 kPa	647.64 ± 0.71 kg/m3	634.84 ± 0.7 kg/m3	621.94 ± 0.68 kg/m3	609.11 ± 0.67 kg/m3	596.75 ± 0.66 kg/m3	583.67 ± 0.64 kg/m3	570.85 ± 0.63 kg/m3	559.13 ± 0.62 kg/m3	548.44 ± 0.6 kg/m3
90000 kPa	653.57 ± 0.72 kg/m3	641.05 ± 0.71 kg/m3	628.85 ± 0.69 kg/m3	616.5 ± 0.68 kg/m3	604.39 ± 0.66 kg/m3	592.06 ± 0.65 kg/m3	579.4 ± 0.64 kg/m3	568.43 ± 0.63 kg/m3	558.09 ± 0.61 kg/m3
100000 kPa	659 ± 1 kg/m3	646.84 ± 1 kg/m3	635.06 ± 1.1 kg/m3	622.79 ± 1.1 kg/m3	611.7 ± 1.2 kg/m3	599.29 ± 1.2 kg/m3 and 599.44 ± 1.2 kg/m3	587.43 ± 1.2 kg/m3	576.8 ± 1.3 kg/m3	567 ± 1.3 kg/m3
120000 kPa	669.09 ± 1 kg/m3	657.68 ± 1.1 kg/m3	646.41 ± 1.1 kg/m3	634.99 ± 1.1 kg/m3	624.5 ± 1.2 kg/m3	612.95 ± 1.2 kg/m3	601.69 ± 1.3 kg/m3	591.55 ± 1.3 kg/m3	582.66 ± 1.4 kg/m3
140000 kPa	678.21 ± 1 kg/m3	667.21 ± 1.1 kg/m3	656.55 ± 1.1 kg/m3	645.72 ± 1.2 kg/m3	635.8 ± 1.2 kg/m3	624.62 ± 1.3 kg/m3	614.21 ± 1.3 kg/m3	604.56 ± 1.3 kg/m3	595.99 ± 1.4 kg/m3
160000 kPa	686.38 ± 1 kg/m3	676.01 ± 1.1 kg/m3	665.84 ± 1.1 kg/m3	655.32 ± 1.2 kg/m3	645.85 ± 1.2 kg/m3	635.26 ± 1.3 kg/m3	625.04 ± 1.3 kg/m3	616.21 ± 1.4 kg/m3	608.09 ± 1.4 kg/m3
180000 kPa	694.06 ± 1.1 kg/m3	684 ± 1.1 kg/m3	674.38 ± 1.2 kg/m3	664.26 ± 1.2 kg/m3	655.11 ± 1.2 kg/m3	644.86 ± 1.3 kg/m3	635.05 ± 1.3 kg/m3	626.52 ± 1.4 kg/m3	618.72 ± 1.4 kg/m3
200000 kPa	701.06 ± 1.1 kg/m3	691.43 ± 1.1 kg/m3	682.01 ± 1.2 kg/m3	672.25 ± 1.2 kg/m3	663.39 ± 1.3 kg/m3	653.7 ± 1.3 kg/m3 and 653.25 ± 1.3 kg/m3	644.07 ± 1.4 kg/m3	635.99 ± 1.4 kg/m3	628.4 ± 1.5 kg/m3

Settings	vapor or sublimation pressure [kPa]
280 K	199.8 ± 0.7
300 K	369.8 ± 0.8
